Data published in patent US20060069084A1, “Methods of inhibiting kinases” (priority 2001, published 2006).

What was measured:
Assay type in all cases: biochemical
Conditions in all cases: Table 6; inhibit 50% of activity at 50 μM
JAK1 = target: T1, JAK1 (Homo sapiens, UniProt P23458); assay: JAK1 kinase domain capture-based ELISA kinase assay
T1 construct: The kinase domain of humanJAK1 was amplified from U937mRNA; His tag (from pFastBac HTb vector; nickel chelate purification) (N); made in house; host or cells: baculovirus; virus made in Sf9, large-scale expression in High Five insect cells
Protocol: (§1) For screening purposes, compounds were diluted in 96 well plates at a concentration of 50 μM or 20 μM. Plates were warmed at 37° C. for 30 minutes before assay.
The kinase domain of humanJAK1 was amplified from U937mRNA using the polymerase chain reaction with the following primers: […]
JAK1 PCR products were cloned into the pFastBac HTb expression vector (Gibco) via the Xho I and Kpn I sites. The JAK1 plasmid was then transformed into competent DH10Bac cells (Gibco), and the recombinant baculovirus produced prepared for transfection into Sf9 insect cells.
(§2) Baculovirus preparations from each of the JAK family members were infected into five litres of High Five cells (Invitrogen) grown in High Five serum free medium (Invitrogen) to a cell density of approximately 1-2×10^6 cells/ml. Cells are infected with virus at a MOI of 0.8-3.0. Cells were harvested and lysed. JAK kinase domains were purified by affinity chromatography on a Probond (Invitrogen) nickel chelate affinity column.
(§3) The biotinylated substrate biotin-EGPWLEEEEEAYGWMDF-NH2 (SEQ ID NO:9) (final concentration 5 μM) was used as substrate, and tyrosine phosphorylation was quantitated following transfer to an avidin coated ELISA plate using peroxidase-linked anti-phospho-tyrosine antibody PY20.
(§4) Inhibitors were added to the assays fifteen minutes prior to the addition of ATP. Inhibitors were added in aqueous DMSO, with DMSO concentrations never exceeding 1%.

JAK3 = target: T2, JAK3 (Homo sapiens, UniProt P52333); assay: JAK3 kinase domain capture-based ELISA kinase assay
T2 construct: The kinase domain of humanJAK3 was amplified from U937mRNA; His tag (from pFastBac HTb vector; nickel chelate purification) (N); made in house; host or cells: baculovirus; virus made in Sf9, large-scale expression in High Five insect cells
Protocol: as §1
The kinase domain of humanJAK3 was amplified from U937mRNA using the polymerase chain reaction with the following primers: […]
JAK3 PCR products were cloned into the pFastBac HTb expression vector (Gibco) via the Xho I and Kpn I sites. The JAK3 plasmid was then transformed into competent DH10Bac cells (Gibco), and the recombinant baculovirus produced prepared for transfection into Sf9 insect cells.
as §2, §3, §4

JAK2 = target: T3, JAK2 (Homo sapiens, UniProt O60674); assay: JAK2 kinase domain capture-based ELISA kinase assay
T3 construct: The kinase domain of humanJAK2 was amplified from U937mRNA; His tag (from pFastBac HTc vector; nickel chelate purification) (N); made in house; host or cells: baculovirus; virus made in Sf9, large-scale expression in High Five insect cells
Protocol: as §1
The kinase domain of humanJAK2 was amplified from U937mRNA using the polymerase chain reaction with the following primers: […]
JAK2 PCR products were cloned into the pFastBac HTc expression vector (Gibco) via the Sal I and Not I sites. The JAK2 plasmid was then transformed into competent DH10Bac cells (Gibco), and the recombinant baculovirus produced prepared for transfection into Sf9 insect cells.
as §2, §3, §4

TYK2 = target: T4, TYK2 (Homo sapiens, UniProt P29597); assay: TYK2 kinase domain capture-based ELISA kinase assay
T4 construct: The kinase domain of humanTYK2 was amplified from A549 mRNA; His tag (from pBlueBacHis2A vector; nickel chelate purification) (N); made in house; host or cells: baculovirus; virus made in Sf9, large-scale expression in High Five insect cells
T4 sequence (P29597 897-1176 limits assumed): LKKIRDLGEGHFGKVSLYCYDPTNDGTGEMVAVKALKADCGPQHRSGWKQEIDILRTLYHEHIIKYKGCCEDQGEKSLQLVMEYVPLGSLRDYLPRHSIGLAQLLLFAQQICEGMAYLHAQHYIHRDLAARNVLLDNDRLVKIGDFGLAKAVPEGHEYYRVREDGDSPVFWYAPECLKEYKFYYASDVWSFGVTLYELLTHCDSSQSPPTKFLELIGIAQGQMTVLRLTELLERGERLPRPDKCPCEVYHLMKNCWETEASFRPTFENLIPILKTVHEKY
Protocol: as §1
The kinase domain of humanTYK2 was amplified from A549 mRNA using the polymerase chain reaction with the following primers: […]
TYK2 PCR products were cloned into pBlueBacHis2A (Invitrogen) via the EcoRI site. The recombinant TYK2 baculovirus produced was prepared for transfected into Sf9 insect cells.
as §2, §3, §4

T2 sequence (P52333 822-1111 limits assumed): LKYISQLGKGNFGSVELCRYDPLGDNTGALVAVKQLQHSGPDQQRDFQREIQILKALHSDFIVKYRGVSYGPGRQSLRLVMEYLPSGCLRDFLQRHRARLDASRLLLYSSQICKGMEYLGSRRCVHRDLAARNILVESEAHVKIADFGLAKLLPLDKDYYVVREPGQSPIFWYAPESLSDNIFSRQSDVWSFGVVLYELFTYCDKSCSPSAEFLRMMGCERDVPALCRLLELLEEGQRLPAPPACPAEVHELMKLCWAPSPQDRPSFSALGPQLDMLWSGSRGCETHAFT
T1 sequence (P23458 875-1153 limits assumed): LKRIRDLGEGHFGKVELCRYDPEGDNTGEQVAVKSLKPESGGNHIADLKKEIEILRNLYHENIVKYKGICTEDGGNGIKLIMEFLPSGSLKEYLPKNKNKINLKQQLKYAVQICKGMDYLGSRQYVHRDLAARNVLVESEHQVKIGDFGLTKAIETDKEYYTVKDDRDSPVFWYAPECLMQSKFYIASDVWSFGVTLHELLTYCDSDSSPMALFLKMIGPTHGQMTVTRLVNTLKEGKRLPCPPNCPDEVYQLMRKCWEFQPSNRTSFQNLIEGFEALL
T3 sequence (O60674 849-1124 limits assumed): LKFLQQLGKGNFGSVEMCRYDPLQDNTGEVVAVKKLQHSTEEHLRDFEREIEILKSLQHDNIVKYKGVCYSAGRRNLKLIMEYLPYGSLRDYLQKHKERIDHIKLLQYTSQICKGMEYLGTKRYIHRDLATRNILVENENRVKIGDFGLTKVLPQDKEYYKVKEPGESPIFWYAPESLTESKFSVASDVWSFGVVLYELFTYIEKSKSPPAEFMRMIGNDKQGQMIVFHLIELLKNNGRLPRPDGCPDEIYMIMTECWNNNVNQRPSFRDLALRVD

Compound	IC50 (JAK1) [µM]	IC50 (JAK3) [µM]	IC50 (JAK2) [µM]	IC50 (TYK2) [µM]
CN(C)c1ccc(-c2cn3ccnc3c(NC3CC3)n2)cc1	> 50	< 50	> 50	> 50
Fc1ccccc1-c1cn2ccnc2c(Nc2ccc(N3CCOCC3)cc2)n1	< 50	> 50	< 50	< 50
Fc1ccc(-c2cn3ccnc3c(Nc3ccc4[nH]ccc4c3)n2)cc1Cl	< 50	> 50	> 50	< 50
COc1ccc(Nc2nc(-c3ccccc3F)cn3ccnc23)cn1	< 50	> 50	< 50	> 50
c1ccc(Nc2nc(-c3ccco3)cn3ccnc23)cc1	> 50	> 50	< 50	< 50
Brc1cn2ccnc2c(Nc2ccccc2)n1	< 50	> 50	< 50	< 50
CCNc1nc(-c2ccc(N(C)C)cc2)cn2ccnc12	< 50	> 50	> 50	> 50
NCc1cccc(-c2cn3ccnc3c(Nc3ccccc3)n2)c1	< 50	> 50	< 50	< 50
c1cn2cc(-c3ccc4c(c3)OCO4)nc(Nc3ccc(N4CCOCC4)cc3)c2n1	< 50	> 50	< 50	< 50
COc1ccccc1-c1cn2ccnc2c(Nc2ccc(N3CCOCC3)cc2)n1	< 50	> 50	< 50	< 50
CN1CCCN(c2nc(-c3cccc4ccccc34)cn3ccnc23)CC1	< 50	> 50	> 50	> 50
O=C(O)c1cccc(-c2cn3ccnc3c(Nc3ccc4cn[nH]c4c3)n2)c1	< 50	> 50	< 50	< 50
COc1ccc(Nc2nc(-c3ccccc3OC)cn3ccnc23)cn1	< 50	> 50	< 50	< 50
c1coc(-c2cn3ccnc3c(Nc3ccc4[nH]ccc4c3)n2)c1	< 50	> 50	< 50	< 50
Oc1cccc(-c2cn3ccnc3c(N3CCOCC3)n2)c1	> 50	> 50	< 50	> 50
CCCC/C=C/c1cn2ccnc2c(Nc2ccc(OC)nc2)n1	> 50	> 50	< 50	> 50

Compound	IC50 (JAK1) [µM]	IC50 (JAK3) [µM]	IC50 (JAK2) [µM]	IC50 (TYK2) [µM]
COc1ccc(Nc2nc(-c3ccccc3Cl)cn3ccnc23)cn1	> 50	> 50	< 50	> 50
CCCC/C=C/c1cn2ccnc2c(NC2CCC(O)CC2)n1 (centres unmarked)	> 50	< 50	> 50	> 50
c1cncc(-c2cn3ccnc3c(NCCc3ccncc3)n2)c1	> 50	< 50	> 50	> 50
c1cncc(CCNc2nc(-c3ccco3)cn3ccnc23)c1	> 50	< 50	> 50	> 50
COc1ccc(Nc2nc(-c3c(C)cccc3C)cn3ccnc23)cn1	> 50	< 50	> 50	> 50
c1ccc(CN2CC[C@@H](Nc3nc(-c4ccc5c(c4)OCO5)cn4ccnc34)C2)cc1	> 50	> 50	> 50	< 50
Clc1ccccc1-c1cn2ccnc2c(Nc2ccc3[nH]ccc3c2)n1	< 50	> 50	< 50	< 50
CN(C)C(=O)COc1cccc(Nc2nc(-c3cccc(N)c3)cn3ccnc23)c1	< 50	< 50	< 50	< 50
CCCC/C=C/c1cn2ccnc2c(Nc2ccc(N(CC)CCO)cc2)n1	< 50	< 50	< 50	< 50
COc1cc(-c2cn3ccnc3c(Nc3ccccc3)n2)cc(OC)c1OC	< 50	> 50	< 50	> 50
FC(F)(F)Oc1cccc(-c2cn3ccnc3c(Nc3ccccc3)n2)c1	> 50	> 50	< 50	> 50
Fc1ccccc1-c1cn2ccnc2c(NCCc2cccnc2)n1	< 50	< 50	< 50	> 50
CCNc1nc(-c2ccc(O)c(OC)c2)cn2ccnc12	< 50	< 50	< 50	> 50
CCCNc1nc(-c2cccc(N)c2)cn2ccnc12	< 50	> 50	> 50	> 50
c1coc(-c2cn3ccnc3c(Nc3ccc(N4CCOCC4)cc3)n2)c1	< 50	> 50	< 50	< 50

Next, values leading:

IC50 (JAK1) [µM]	IC50 (JAK3) [µM]	IC50 (JAK2) [µM]	IC50 (TYK2) [µM]	Compound
< 50	> 50	< 50	< 50	COc1ccccc1-c1cn2ccnc2c(Nc2ccc(CCO)cc2)n1
< 50	> 50	< 50	< 50	Cc1ccc(Nc2nc(-c3ccccc3Cl)cn3ccnc23)cc1NS(C)(=O)=O
< 50	> 50	< 50	< 50	CC(=O)Nc1cccc(-c2cn3ccnc3c(Nc3ccc(N4CCOCC4)cc3)n2)c1
< 50	< 50	< 50	< 50	OCCc1ccc(Nc2nc(-c3ccccc3F)cn3ccnc23)cc1
< 50	> 50	< 50	< 50	O=C(O)c1ccc(-c2cn3ccnc3c(Nc3ccc4cn[nH]c4c3)n2)cc1
< 50	< 50	< 50	< 50	CN(C)CCNC(=O)c1ccc(-c2cn3ccnc3c(Nc3ccc(C(=O)O)cc3)n2)cc1
< 50	> 50	< 50	< 50	O=C(NCCO)c1ccc(-c2cn3ccnc3c(Nc3ccccc3)n2)cc1
< 50	> 50	< 50	> 50	c1ccc2cc(-c3cn4ccnc4c(Nc4ccc(N5CCOCC5)cc4)n3)ccc2c1
< 50	> 50	< 50	> 50	CN(C)CCNC(=O)c1cccc(-c2cn3ccnc3c(Nc3ccc(Cl)cc3)n2)c1
> 50	< 50	> 50	> 50	O=C(O)CCc1ccc(-c2cn3ccnc3c(NCCc3ccncc3)n2)cc1
> 50	< 50	> 50	< 50	O=C(O)CCc1ccc(-c2cn3ccnc3c(NCc3ccco3)n2)cc1
< 50	< 50	< 50	< 50	CC(=O)Nc1ccc(Nc2nc(-c3ccc4c(c3)OCO4)cn3ccnc23)cc1
< 50	> 50	< 50	< 50	Cc1ccc(S(=O)(=O)Nc2ccc(Nc3nc(-c4ccc(CCC(=O)O)cc4)cn4ccnc34)cc2)cc1
